Molecular target: Genome polyprotein (Dengue virus type 2 (strain Thailand/16681/1984), UniProt P29990)
Assay: Inhibition of DENV2 NS2B-NS3 serine protease expressed in human Huh7 cells after 3 days by luciferase reporter gene assay

CC(=O)O[C@H]1CC(C)(C)C(=C=C/C(C)=C/C=C/C=C/C=C(C)/C=C2C=C(/C=C/[C@@]34O[C@]3(C)C[C@@H](O)CC4(C)C)C(=O)O/2)[C@](C)(O)C1
EC50: 4.5 µM
